For 16 compounds, GI50 and TGI results are on record in PubChem BioAssay (NCI).

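Dose response: 5 concentrations. Exposure: 48 h. Format: 96-well plates. Endpoint: linear interpolation; highest concentration if not reached. At the GI50, growth is halved. TGI: total growth inhibition.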 A value given as a limit tells only on which side of the number the result lay.

Holding throughout (experiment): NCI tumour cell line growth inhibition, 48 h
Assay [1] relates to NCI-H226 lung.
The test system of assay [2] is SNB-19 CNS.
Assay [3] concerns SN12C renal.
Assay [4] relates to LOX IMVI melanoma.
The subject of assay [5] is HCT-116 colon.
Assay [6] deals with NCI-H522 lung.
Assay [7] has as its system U251 CNS.
The subject of assay [8] is HOP-92 NSCLC.
In assay [9] the test system is M14 melanoma.
Assay [10] has as its system T-47D breast.

For `COc1ccc2cc(-c3cc4c(oc3=O)-c3ccccc3OC4O)c(=O)oc2c1` (stereo not drawn), the GI50 was 16.1 µM in assay [1]; 16.2 µM in assay [2]; 17.2 µM in assay [3]; 15.9 µM in [4]; 20.2 µM in assay [5]; 17000 nM in assay [6]. Further, the GI50 in [7] is 16.4 µM; in assay [8], 10.2 µM; in [9], 22.1 µM; in [10], 13 µM. The TGI in assay [1] is 34 µM; in [2] it was 30.5 µM; in assay [3], 32.2 µM; in [4], 31.2 µM; in [5], 34.7 µM; in assay [6] it was 37.6 µM. For the same compound, the TGI in [7] came out at 31.4 µM; in [8] it was 24.7 µM; in [9], 43.8 µM; in assay [10], 33.6 µM.

For the compound `CN(C)c1ccc(N=C2C=CC(=[N+](C)C)C=C2)cc1`, the GI50 was 17 µM in assay [1]; 6.45 µM in assay [2]; 13.7 µM in assay [3]; 3.86 µM in assay [4]; 4.04 µM in [5]; 1790 nM in [6]. Further, the GI50 is 3.65 µM in [7], 5.17 µM in [8], 17.7 µM in assay [9] and 4.37 µM in [10]. The TGI in assay [1] is greater than 100 µM; in assay [2] it was greater than 100 µM; in assay [3], greater than 100 µM; in assay [4], 22.1 µM; in assay [5], 17.8 µM; in [6], 4.95 µM. Moreover, the TGI in assay [7] was 15.4 µM; in assay [8], 74.4 µM; in [9], 81.4 µM; in assay [10], 21.2 µM.

Turning to `C[C@]12CC[C@H](O)C[C@H]1CC[C@@H]1[C@@H]2CC[C@]2(C)[C@@H](C3=CC(=O)OC3)[C@@H](O)C[C@]12O`, the TGI in assay [1] is 9.8 µM; in assay [2], 15.5 µM; in assay [3], 3.25 µM; in assay [4] it was 12 µM; in [5] it was 4.37 µM; in assay [6], 2.67 µM. Moreover, the TGI was 5.08 µM in [7], greater than 100 µM in assay [8], 5.58 µM in assay [9] and greater than 40.7 µM in assay [10].

Regarding `CC(=O)c1cc(C(=O)c2ccc3c(c2)Sc2ccccc2N3)c2c(C)cc(C)cn12`, the GI50 in assay [1] is 0.73 µM; in assay [2] it was 0.443 µM; in [3], 0.724 µM; in [4], 0.73 µM; in assay [5], 0.263 µM; in assay [6], 160 nM. Also, the GI50 in assay [7] is 0.396 µM; in [8] it was 1.24 µM; in assay [9], 0.253 µM; in assay [10], 12.8 µM. Further, the TGI in [1] was greater than 100 µM; in [2] it was greater than 100 µM; in assay [3], greater than 100 µM; in assay [4], greater than 100 µM; in assay [5] it was greater than 100 µM; in [6] it was 1.08 µM. Further, the TGI in assay [7] was greater than 100 µM; in assay [8] it was greater than 31 µM; in assay [9] it was greater than 100 µM; in [10], greater than 100 µM.

`CCOC(=O)c1c(C)n2c(=O)cc(C)c3c(O)c(O)cc1c32`: the GI50 in [1] was 9.2 µM; in assay [2], 8.72 µM; in [3], 3.85 µM; in [4], 3.98 µM; in assay [5], 18.5 µM; in assay [6], 3400 nM. Further, the GI50 in assay [7] is 4.68 µM; in assay [8], 2.49 µM; in assay [9], 53.3 µM; in assay [10] it was 9.26 µM. In addition, the TGI in assay [1] was 93.5 µM; in assay [2], greater than 100 µM; in assay [3], 24.6 µM; in assay [4], 30.5 µM; in assay [5], 35.5 µM; in assay [6] it was 16.7 µM. The TGI in assay [7] is 30.5 µM; in [8], 31.6 µM; in assay [9], greater than 100 µM; in assay [10], greater than 100 µM.

Regarding `N/N=C(\C(=O)Nc1ccc(Cl)cc1Cl)C(c1cnc2ccccc2n1)[N+](=O)[O-]` (stereo not drawn), the TGI in assay [1], in assay [3], in assay [4], in [5], in assay [6] and in assay [7] was greater than 100 µM throughout. Also, the TGI in assay [8], in assay [9] and in [10] was greater than 100 µM in each case.

Regarding `CNC(=O)OCc1c2ccncc2c(C)c2c1[nH]c1ccccc12`, the TGI came to 1.25 µM in assay [1]; 7.98 µM in [2]; 1.94 µM in [3]; 0.584 µM in assay [4]; 12.7 µM in assay [5]; 0.272 µM in [6]. Besides, the TGI in assay [7] was 1.8 µM; in assay [8], 16.5 µM; in [9] it was 2.95 µM; in assay [10], 9.61 µM.

As to `c1cc2[nH]ncc2cc1-c1nc2ccc3[nH]ncc3c2c2c1CCCC2`, the GI50 in [1] was 1.73 µM; in [2] it was 2.35 µM; in [3] it was 2.53 µM; in assay [4], 0.811 µM; in assay [5], 0.455 µM; in assay [6], 424 nM. Also, the GI50 in [7] is 2.66 µM; in assay [8] it was 0.966 µM; in [9], 0.523 µM; in [10], 2.02 µM. The TGI worked out at 7.79 µM in assay [1]; 11 µM in assay [2]; 13.4 µM in assay [3]; 4.54 µM in assay [4]; 10.6 µM in assay [5]; 3.16 µM in assay [6]. Also, the TGI is 15.5 µM in [7], 4.58 µM in assay [8], 10.8 µM in assay [9] and 12.3 µM in [10].

`Cc1ccccc1-n1ncc(C(=O)c2ccccc2)c1N`: the GI50 in [1] was greater than 25 µM; in [2] it was greater than 25 µM; in assay [3], greater than 25 µM; in assay [4] it was greater than 25 µM; in [5] it was greater than 25 µM; in assay [6] it was greater than 25000 nM. The GI50 is greater than 25 µM in assay [7], 4.2 µM in assay [8], greater than 25 µM in [9] and greater than 25 µM in assay [10]. Further, the TGI in [1], in [2], in assay [3], in assay [4], in assay [5] and in [6] was greater than 25 µM each time. Besides, the TGI in [7], in assay [8], in assay [9] and in [10] was greater than 25 µM each time.

Regarding `CC(C)(C)C(=O)OCOP(=O)(OCOC(=O)C(C)(C)C)C1CC(O)N(O)C1=O` (stereo not drawn), the GI50 was 33.5 µM in assay [1]; 2.37 µM in assay [2]; 2.87 µM in [3]; 3.35 µM in [4]; 3.72 µM in assay [5]; 2950 nM in [6]. Also, the GI50 in assay [7] is 3.58 µM; in assay [8] it was 1.84 µM; in assay [9], 8.44 µM; in [10] it was 5.9 µM. The TGI in assay [1] is greater than 100 µM; in assay [2], 7.33 µM; in assay [3], 9.56 µM; in [4], greater than 100 µM; in [5], greater than 100 µM; in assay [6] it was 14.4 µM. Besides, the TGI is 44.1 µM in assay [7], 8.99 µM in assay [8], greater than 100 µM in [9] and 89.7 µM in [10].

For `O=C(c1ccccc1)c1ccc(Oc2ccc([N+](=O)[O-])cc2[N+](=O)[O-])cc1`, the GI50 in [1] is 2.52 µM; in [2], 7.74 µM; in assay [3], 3.25 µM; in assay [4], 3.06 µM; in assay [5], 3.29 µM; in assay [6], 2510 nM. Besides, the GI50 was 3.25 µM in [7], 2.87 µM in assay [8], 3.09 µM in assay [9] and 2.82 µM in assay [10]. Moreover, the TGI came out at 8.57 µM in assay [1]; 34.2 µM in [2]; 19.1 µM in assay [3]; 15.1 µM in assay [4]; 26.2 µM in assay [5]; 6.53 µM in assay [6]. Besides, the TGI in [7] is 13.3 µM; in [8], 9.27 µM; in assay [9] it was 31.6 µM; in assay [10] it was 23.5 µM.

On to `O=C(CN(/C=C/C(=O)C(F)(F)F)c1ccc(Cl)cc1)c1ccccc1`, for which the GI50 in [2] was 33 µM; in [3], 16 µM; in assay [4] it was 5.26 µM; in assay [5], 11.6 µM; in [6], 6520 nM; in assay [7], 15.8 µM. The results for the GI50 in [8], in assay [9] and in [10] were 10.4 µM, 10.6 µM and 4.08 µM, respectively. Also, the TGI in assay [2] is greater than 100 µM; in assay [3], 34.2 µM; in assay [4], 22.3 µM; in assay [5] it was 23.7 µM; in assay [6], 26.3 µM; in assay [7], 30.8 µM. The TGI in assay [8] was 28.1 µM; in assay [9], 22.9 µM; in [10] it was greater than 100 µM.

As to `COC(=O)[C@]12CC[C@@H](C)[C@H](C)[C@@H]1C1=CC[C@@H]3[C@@]4(C)C(C=O)=C[C@@](C)(COC(C)=O)C4=CC[C@@]3(C)[C@]1(C)CC2`, the GI50 was 6.28 µM in assay [1]; 5.25 µM in assay [2]; 6.12 µM in assay [3]; 3.3 µM in assay [4]; 2.47 µM in [5]; 7970 nM in assay [6]. For the same compound, the GI50 in assay [7] was 3.37 µM; in assay [8], 2.63 µM; in [9], 5.27 µM; in assay [10], 3.79 µM. In addition, the TGI in assay [1] came to 22.8 µM; in assay [2], 25.6 µM; in [3], 28.1 µM; in [4], 12.7 µM; in [5] it was 10.4 µM; in assay [6] it was 20.5 µM. For the same compound, the TGI in assay [7] stood at 13.9 µM; in assay [8], 16.3 µM; in assay [9], 22.4 µM; in assay [10] it was 27.3 µM.

In the case of `Cc1cc(O)ccc1C1=NN(c2ccc(S(C)(=O)=O)cc2)C(=O)CC1`, the GI50 in assay [1] is greater than 100 µM; in [2], 50.4 µM; in [3], 7.18 µM; in assay [4], 7.25 µM; in [5] it was 3.78 µM; in assay [6] it was 2530 nM. The GI50 is 4.3 µM in [7], 6.49 µM in [8], 3.85 µM in assay [9] and 20.2 µM in assay [10]. The TGI in [1] is greater than 100 µM; in [2], greater than 100 µM; in assay [3] it was greater than 100 µM; in assay [4] it was greater than 100 µM; in assay [5], greater than 100 µM; in [6], 8.6 µM. The TGI in assay [7], in [8], in [9] and in assay [10] was greater than 100 µM each time.

Take `Nc1nc2c(s1)CCc1c-2c(Br)n(Cc2ccccc2)c1Br`: the GI50 in [2] is 23.3 µM; in assay [3], 13.5 µM; in assay [4], 3.98 µM; in assay [5] it was 2.53 µM; in assay [6] it was 2040 nM; in assay [7], 14 µM. The GI50 is 4.43 µM in assay [8], 14.5 µM in assay [9] and 3.17 µM in [10]. In addition, the TGI in assay [2] was 86.4 µM; in assay [3] it was 31.2 µM; in assay [4] it was 19.7 µM; in [5], 6.43 µM; in assay [6], 4.63 µM; in assay [7] it was 28.2 µM. Moreover, the TGI amounted to 23.9 µM in assay [8], 30.2 µM in assay [9] and 10.6 µM in [10].

For the compound `CCN1C(=O)N(CC)C2Nn3c(s/c(=C\c4ccccc4Br)c3=O)=NC21` (stereo not drawn), the GI50 in [1] was 6.31 µM; in assay [2], 3.18 µM; in [3] it was 3.17 µM; in [4] it was 2.43 µM; in assay [5], 0.497 µM; in assay [6] it was 1260 nM. Besides, the GI50 in assay [7] is 0.676 µM; in assay [8], 4.14 µM; in assay [10], 13.2 µM. Besides, the TGI is greater than 100 µM in [1]; greater than 100 µM in assay [2]; 27.8 µM in assay [3]; 30.6 µM in assay [4]; greater than 100 µM in [5]; 4.15 µM in assay [6]. Also, the TGI in assay [7] was 19.4 µM; in assay [8], 80.8 µM; in [10], greater than 100 µM.
